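Growth conditions: 96-well plates. Treatment: test compound, 48 hours, 5 concentrations. Analysis: linear interpolation between bracketing concentrations; unreached endpoints set to highest concentration. Abbreviation: GI50, concentration required for 50% inhibition of growth.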 Calls of active or inactive are those of the source. Cut-off read from the data, not from the text of the source: active = GI50 up to about 1.1 µM and inactive = higher.
Assays:
Assay in all cases: NCI tumour cell line growth inhibition, 48 h
[1] = system: A498
[2] = system: A549
[3] = system: ACHN
[4] = system: CAKI-1
[5] = system: COLO 205
[6] = system: DLD-1
[7] = system: DMS-114
[8] = system: DMS-273
[9] = system: EKVX
[10] = system: HCT-15
[11] = system: HOP-18
[12] = system: K562
[13] = system: KM-20L2
[14] = system: KM12
[15] = system: LXFL 529
[16] = system: M19-MEL
[17] = system: MOLT-4
[18] = system: Malme-3M
[19] = system: OVCAR-3
[20] = system: RPMI-8226
[21] = system: RXF 631
[22] = system: SF-295
[23] = system: SK-MEL-28
[24] = system: SN12C
[25] = system: SNB-19
[26] = system: SNB-78
[27] = system: SW-620
[28] = system: U-251
[29] = system: UACC-62
[30] = system: XF498
[31] = system: 786-0
[32] = system: CCRF-CEM
[33] = system: HCC 2998
[34] = system: HCT-116
[35] = system: HOP-62
[36] = system: HOP-92
[37] = system: HT-29
[38] = system: IGROV-1
[39] = system: LOX IMVI
[40] = system: M14
[41] = system: NCI-H226
[42] = system: NCI-H23
[43] = system: NCI-H460
[44] = system: NCI-H522
[45] = system: OVCAR-4
[46] = system: OVCAR-5
[47] = system: OVCAR-8
[48] = system: RXF 393
[49] = system: SF-268
[50] = system: SF-539
[51] = system: SK-MEL-2
[52] = system: SK-MEL-5
[53] = system: SNB-75
[54] = system: TK-10
[55] = system: UACC-257
[56] = system: UO-31
[57] = system: HL-60
[58] = system: SK-OV-3
[59] = system: SR

For `Cc1cc2c(C(C)C)c(O)c(O)c(C=O)c2c(O)c1-c1c(C)cc2c(C(C)C)c(O)c(O)c(C=O)c2c1O` [GOSSYPOL], the GI50 [1] was 4.35 µM (inactive), the GI50 [2] was 2.98 µM (inactive) and the GI50 [3] was 3.02 µM (inactive). For the same molecule, the GI50 [4] was 4.14 µM (inactive), the GI50 [5] was 2.63 µM (inactive) and the GI50 [6] was 3.84 µM (inactive). For the same molecule, the GI50 [7] was 2.58 µM (inactive), the GI50 [8] was 4.4 µM (inactive) and the GI50 [9] was 2.15 µM (inactive). The GI50 [10] was 3.52 µM, the GI50 [11] was 3.69 µM (inactive) and the GI50 [12] was 3.08 µM (inactive). The GI50 [13] was 3.33 µM (inactive), the GI50 [14] was 1.97 µM (inactive) and the GI50 [15] was 2.74 µM (inactive). The GI50 [16] was 3.34 µM (inactive), the GI50 [17] was 1.91 µM (inactive) and the GI50 [18] was 5.46 µM (inactive). The GI50 [19] was 3.24 µM (inactive), the GI50 [20] was 2.49 µM (inactive) and the GI50 [21] was 5.32 µM (inactive). For the same molecule, the GI50 [22] was 2.37 µM (inactive), the GI50 [23] was 4.66 µM (inactive) and the GI50 [24] was 5.09 µM (inactive). The GI50 [25] was 3.86 µM (inactive), the GI50 [26] was 5.14 µM (inactive) and the GI50 [27] was 4.59 µM (inactive). The GI50 [28] was 2.52 µM (inactive), the GI50 [29] was 2.36 µM (inactive) and the GI50 [30] was 2.26 µM (inactive).

For `CN(C)CC1(C)CC/C(=C\c2ccccc2)C1=O` (configuration not stated), the GI50 [31] was > 100 µM (inactive), the GI50 [1] was > 100 µM (inactive) and the GI50 [2] was > 100 µM (inactive). For the same molecule, the GI50 [3] was > 100 µM (inactive), the GI50 [4] was > 100 µM (inactive) and the GI50 [32] was 43.1 µM (inactive). For the same molecule, the GI50 [5] was > 100 µM (inactive), the GI50 [6] was > 100 µM (inactive) and the GI50 [7] was > 100 µM (inactive). For the same molecule, the GI50 [8] was > 100 µM (inactive), the GI50 [33] was > 100 µM (inactive) and the GI50 [34] was > 100 µM (inactive). For the same molecule, the GI50 [10] was 63 µM, the GI50 [11] was > 100 µM (inactive) and the GI50 [35] was > 100 µM (inactive). The GI50 [36] was > 100 µM (inactive), the GI50 [37] was > 100 µM (inactive) and the GI50 [38] was > 100 µM (inactive). For the same molecule, the GI50 [12] was > 100 µM (inactive), the GI50 [13] was > 100 µM (inactive) and the GI50 [14] was > 100 µM (inactive). The GI50 [39] was > 100 µM (inactive), the GI50 [40] was > 100 µM (inactive) and the GI50 [16] was > 100 µM (inactive). The GI50 [17] was > 100 µM (inactive), the GI50 [18] was > 100 µM (inactive) and the GI50 [41] was > 100 µM (inactive). For the same molecule, the GI50 [42] was > 100 µM (inactive), the GI50 [43] was > 100 µM (inactive) and the GI50 [44] was 39.8 µM (inactive). The GI50 [19] was > 100 µM (inactive), the GI50 [45] was > 100 µM (inactive) and the GI50 [46] was > 100 µM (inactive). For the same molecule, the GI50 [47] was > 100 µM (inactive), the GI50 [20] was 27.5 µM (inactive) and the GI50 [48] was > 100 µM (inactive). For the same molecule, the GI50 [21] was 49 µM (inactive), the GI50 [49] was > 100 µM (inactive) and the GI50 [22] was > 100 µM (inactive). The GI50 [50] was > 100 µM (inactive), the GI50 [23] was > 100 µM (inactive) and the GI50 [51] was > 100 µM (inactive). The GI50 [52] was > 100 µM (inactive), the GI50 [24] was > 100 µM (inactive) and the GI50 [25] was 44.1 µM (inactive). The GI50 [53] was > 100 µM (inactive), the GI50 [26] was > 100 µM (inactive) and the GI50 [27] was 63.1 µM (inactive). For the same molecule, the GI50 [54] was > 100 µM (inactive), the GI50 [28] was > 100 µM (inactive) and the GI50 [55] was > 100 µM (inactive). For the same molecule, the GI50 [29] was > 100 µM (inactive), the GI50 [56] was > 100 µM (inactive) and the GI50 [30] was > 100 µM (inactive).

`COC(=O)C1=Cc2c(OC)cc(OC)c(OC)c2[C@H](c2cc(OC)c(OC)cc2OC)C1C(=O)OC` (some centres not stated) was tested, and the GI50 [31] was > 100 µM (inactive), the GI50 [1] was > 100 µM (inactive) and the GI50 [2] was > 100 µM (inactive). For the same molecule, the GI50 [3] was > 100 µM (inactive), the GI50 [4] was > 100 µM (inactive) and the GI50 [32] was 64.7 µM (inactive). For the same molecule, the GI50 [5] was > 100 µM (inactive), the GI50 [6] was > 100 µM (inactive) and the GI50 [7] was > 100 µM (inactive). The GI50 [8] was 42.7 µM (inactive), the GI50 [9] was > 100 µM (inactive) and the GI50 [33] was > 100 µM (inactive). For the same molecule, the GI50 [34] was > 100 µM (inactive), the GI50 [10] was > 100 µM and the GI50 [57] was 28.8 µM (inactive). The GI50 [35] was > 100 µM (inactive), the GI50 [36] was > 100 µM (inactive) and the GI50 [37] was > 100 µM (inactive). For the same molecule, the GI50 [38] was > 100 µM (inactive), the GI50 [12] was 20.1 µM (inactive) and the GI50 [13] was > 100 µM (inactive). The GI50 [14] was > 100 µM (inactive), the GI50 [39] was > 100 µM (inactive) and the GI50 [15] was > 100 µM (inactive). The GI50 [40] was > 100 µM (inactive), the GI50 [16] was > 100 µM (inactive) and the GI50 [17] was > 100 µM (inactive). For the same molecule, the GI50 [18] was > 100 µM (inactive), the GI50 [41] was > 100 µM (inactive) and the GI50 [42] was > 100 µM (inactive). The GI50 [43] was > 100 µM (inactive), the GI50 [44] was > 100 µM (inactive) and the GI50 [19] was > 100 µM (inactive). For the same molecule, the GI50 [45] was 99.5 µM (inactive), the GI50 [46] was > 100 µM (inactive) and the GI50 [47] was > 100 µM (inactive). For the same molecule, the GI50 [20] was > 100 µM (inactive), the GI50 [48] was > 100 µM (inactive) and the GI50 [21] was > 100 µM (inactive). The GI50 [49] was > 100 µM (inactive), the GI50 [22] was 88.5 µM (inactive) and the GI50 [50] was 54.7 µM (inactive). For the same molecule, the GI50 [23] was > 100 µM (inactive), the GI50 [52] was > 100 µM (inactive) and the GI50 [58] was > 100 µM (inactive). For the same molecule, the GI50 [24] was > 100 µM (inactive), the GI50 [25] was > 100 µM (inactive) and the GI50 [53] was 57.8 µM (inactive). For the same molecule, the GI50 [26] was 20.7 µM (inactive), the GI50 [27] was > 100 µM (inactive) and the GI50 [54] was > 100 µM (inactive). The GI50 [28] was > 100 µM (inactive), the GI50 [55] was > 10 µM (inactive) and the GI50 [29] was > 100 µM (inactive). For the same molecule, the GI50 [56] was > 100 µM (inactive) and the GI50 [30] was > 100 µM (inactive).

`COc1cc(CN[C@H]2CCc3cc(OC)c(OC)c(OC)c3-c3ccc(SC)c(=O)cc32)cc(OC)c1` was tested, and the GI50 [31] was 0.0468 µM (active), the GI50 [1] was 0.0306 µM (active) and the GI50 [2] was 0.0376 µM (active). For the same molecule, the GI50 [3] was 0.0439 µM (active), the GI50 [4] was 0.0566 µM (active) and the GI50 [5] was 0.0325 µM (active). For the same molecule, the GI50 [6] was 0.0411 µM (active), the GI50 [7] was 0.0222 µM (active) and the GI50 [8] was 0.0341 µM (active). For the same molecule, the GI50 [9] was 0.0828 µM (active), the GI50 [33] was 0.0319 µM (active) and the GI50 [34] was 0.0399 µM (active). For the same molecule, the GI50 [10] was 0.0483 µM, the GI50 [57] was 0.0394 µM (active) and the GI50 [35] was 0.0562 µM (active). For the same molecule, the GI50 [36] was 0.187 µM (active), the GI50 [37] was 0.0249 µM (active) and the GI50 [38] was 0.0403 µM (active). The GI50 [12] was 0.0317 µM (active), the GI50 [13] was 0.0206 µM (active) and the GI50 [14] was 0.0385 µM (active). For the same molecule, the GI50 [39] was 0.0465 µM (active), the GI50 [15] was 0.0494 µM (active) and the GI50 [40] was 0.0322 µM (active). The GI50 [16] was 0.0308 µM (active), the GI50 [17] was 0.452 µM (active) and the GI50 [18] was 0.0575 µM (active). The GI50 [41] was 0.0318 µM (active), the GI50 [42] was 0.0286 µM (active) and the GI50 [43] was 0.0361 µM (active). For the same molecule, the GI50 [44] was 0.0245 µM (active), the GI50 [19] was 0.0334 µM (active) and the GI50 [45] was 0.0731 µM (active). The GI50 [46] was 0.0499 µM (active), the GI50 [47] was 0.0481 µM (active) and the GI50 [20] was 0.0324 µM (active). The GI50 [48] was 0.0266 µM (active), the GI50 [21] was < 0.01 µM (active) and the GI50 [49] was 0.043 µM (active). For the same molecule, the GI50 [22] was 0.0336 µM (active), the GI50 [50] was 0.0206 µM (active) and the GI50 [23] was 0.0386 µM (active). For the same molecule, the GI50 [51] was 0.0463 µM (active), the GI50 [52] was 0.0336 µM (active) and the GI50 [58] was 0.0284 µM (active). For the same molecule, the GI50 [24] was 0.0367 µM (active), the GI50 [25] was 0.0681 µM (active) and the GI50 [53] was 0.0243 µM (active). The GI50 [26] was 0.0538 µM (active), the GI50 [59] was < 0.01 µM (active) and the GI50 [27] was 0.0347 µM (active). The GI50 [54] was 0.0807 µM (active), the GI50 [28] was 0.0324 µM (active) and the GI50 [55] was 0.0566 µM (active). The GI50 [29] was 0.0238 µM (active), the GI50 [56] was 0.0938 µM (active) and the GI50 [30] was 0.0596 µM (active).

From ChEMBL document CHEMBL1201862, “PubChem BioAssay data set” (2004)
